Key:
Experiment in all cases: relative viability (nuclei count vs DMSO), 5 days (fraction); higher = more cells survive
Bexarotene + Trametinib = compound: C=C(c1ccc(C(=O)O)cc1)c1cc2c(cc1C)C(C)(C)CCC2(C)C [Bexarotene] + CC(=O)Nc1cccc(-n2c(=O)n(C3CC3)c(=O)c3c(Nc4ccc(I)cc4F)n(C)c(=O)c(C)c32)c1 [Trametinib] (partner 0.02 µM)
Procedure, shortened: (§1)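 Lung cancer cell lines in 1536-well plates got either a single drug or a fixed anchor-drug dose together with five library-drug doses (not always all listed) in √10 steps, by pin tool, on the day after seeding. Nuclei were counted after 5 days, and relative viability is the treated-to-vehicle ratio of nuclei counts. Values are medians of duplicate plates.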

Bexarotene + Lapatinib = compound: C=C(c1ccc(C(=O)O)cc1)c1cc2c(cc1C)C(C)(C)CCC2(C)C [Bexarotene] + CS(=O)(=O)CCNCc1ccc(-c2ccc3ncnc(Nc4ccc(OCc5cccc(F)c5)c(Cl)c4)c3c2)o1 [Lapatinib] (partner 2 µM)
Procedure, shortened: as §1

Bexarotene + Phenformin = compound: C=C(c1ccc(C(=O)O)cc1)c1cc2c(cc1C)C(C)(C)CCC2(C)C [Bexarotene] + N=C(N)NC(=N)NCCc1ccccc1 [Phenformin] (partner 250 µM)
Procedure, shortened: as §1

Bexarotene + Olaparib = compound: C=C(c1ccc(C(=O)O)cc1)c1cc2c(cc1C)C(C)(C)CCC2(C)C [Bexarotene] + O=C(c1cc(Cc2n[nH]c(=O)c3ccccc23)ccc1F)N1CCN(C(=O)C2CC2)CC1 [Olaparib] (partner 8 µM)
Procedure, shortened: as §1

| Cell Line | relative viability (Bexarotene + Trametinib; first compound 0.08 µM) | relative viability (Bexarotene + Trametinib; first compound 0.253 µM) | relative viability (Bexarotene + Trametinib; first compound 0.8 µM) | relative viability (Bexarotene + Trametinib; first compound 2.53 µM) | relative viability (Bexarotene + Trametinib; first compound 8 µM) | relative viability (Bexarotene + Lapatinib; first compound 0.08 µM) | relative viability (Bexarotene + Lapatinib; first compound 0.253 µM) | relative viability (Bexarotene + Lapatinib; first compound 0.8 µM) | relative viability (Bexarotene + Lapatinib; first compound 2.53 µM) | relative viability (Bexarotene + Lapatinib; first compound 8 µM) | relative viability (Bexarotene + Phenformin; first compound 0.08 µM) | relative viability (Bexarotene + Phenformin; first compound 0.253 µM) | relative viability (Bexarotene + Phenformin; first compound 0.8 µM) | relative viability (Bexarotene + Phenformin; first compound 2.53 µM) | relative viability (Bexarotene + Phenformin; first compound 8 µM) | relative viability (Bexarotene + Olaparib; first compound 0.08 µM) | relative viability (Bexarotene + Olaparib; first compound 0.253 µM) | relative viability (Bexarotene + Olaparib; first compound 0.8 µM) | relative viability (Bexarotene + Olaparib; first compound 2.53 µM) | relative viability (Bexarotene + Olaparib; first compound 8 µM) |
| --- | --- | --- | --- | --- | --- | --- | --- | --- | --- | --- | --- | --- | --- | --- | --- | --- | --- | --- | --- | --- |
| LU99A | 0.659 | 0.531 | 0.608 | 0.52 | 0.417 | 1.12 | 0.917 | 0.929 | 0.99 | 1.03 | 1.24 | 0.89 | 0.862 | 0.829 | 0.912 | 0.276 | 0.306 | 0.277 | 0.311 | 0.273 |
| HCC-366 | 0.357 | 0.375 | 0.361 | 0.295 | 0.263 | 0.984 | 1.06 | 1.06 | 1.04 | 1.06 | 0.624 | 0.608 | 0.579 | 0.533 | 0.597 | 0.346 | 0.494 | 0.381 | 0.388 | 0.369 |
| EKVX | 0.291 | 0.359 | 0.355 | 0.372 | 0.295 | 0.202 | 0.186 | 0.227 | 0.204 | 0.19 | 0.257 | 0.263 | 0.224 | 0.233 | 0.233 | 0.838 | 0.993 | 0.947 | 0.946 | 0.948 |
| NCI-H2342 | 0.927 | 0.767 | 0.794 | 0.825 | 0.745 |  |  |  |  |  | 0.62 | 0.544 | 0.605 | 0.647 | 0.72 | 0.425 | 0.52 | 0.481 | 0.407 | 0.583 |
| NCI-H1755 | 0.849 | 0.864 | 0.834 | 0.773 | 0.718 | 1.07 | 1.29 | 1.1 | 0.994 | 1.02 | 0.717 | 0.679 | 0.623 | 0.601 | 0.622 | 0.982 | 0.957 | 1.03 | 0.951 | 0.887 |
| NCI-H647 | 0.663 | 0.46 | 0.335 | 0.433 | 0.44 | 1.33 | 1.17 | 1.19 | 1.24 | 0.964 | 0.588 | 0.472 | 0.519 | 0.53 | 0.43 | 0.725 | 0.629 | 0.64 | 0.447 | 0.464 |
| LC-2-ad | 1.06 | 0.941 | 0.96 | 0.968 | 0.948 | 0.993 | 1.09 | 1.07 | 0.994 | 0.997 | 0.607 | 0.578 | 0.611 | 0.521 | 0.546 | 0.711 | 0.693 | 0.663 | 0.541 | 0.661 |
| NCI-H1793 | 0.395 | 0.4 | 0.415 | 0.397 | 0.408 | 0.647 | 0.68 | 0.647 | 0.568 | 0.519 | 0.51 | 0.386 | 0.36 | 0.37 | 0.358 | 1.06 | 0.966 | 0.787 | 0.903 | 0.695 |

From the supplement of paper PMC10307832
